This is an account of results in patent US4792609A, “Indoline and 1,2,3,4-tetrahydroquinoline N(dicarboalkoxyvinyl) substituted derivatives” (Bayer Aktiengesellschaft, priority 1985, dated 1988).

A short description of series [1]: UV absorption (λmax, molar and specific extinction, intrinsic coloration). It is filed as physicochemical. The following applies: for E (molar extinction coefficient): Table 1, at λmax; for specific extinction: text on Table 2, compared with compounds of formula I, in words.
A short description of series [2]: solubility at RT in cosmetic oils. It is filed as physicochemical. The note with it: for solubility at RT, groundnut/paraffin oil = 1:9: groundnut/paraffin oil = 1:9, printed as symbol.

With `CCOC(=O)C(=CN1c2ccccc2CC1C)C(=O)OCC` (stereo not drawn) [Compound (2), N-(dicarboethoxyvinyl)-2-methylindoline], the λmax in series [1] (Table 1) is given as 330 nm. The compound further showed an E (molar extinction coefficient) in series [1] of 30000 L/mol/cm. For the same compound, in series [1] (Table 2), the “specific extinction E^1” value is reported as 1008 and the λmax is 330 nm. Besides, the “solubility at RT, groundnut oil” value in series [2] (printed as symbol) is recorded as “.infin”. Also, in series [2], the “solubility at RT, groundnut/paraffin oil = 1:9” value is given as “.infin”.
For the compound `CCOC(=O)C(C(=O)OCC)=C(C)N1CCc2ccccc21` [(3), N-(α-methyl-β,β-dicarboethoxyvinyl)indoline], the λmax in series [1] (Table 1) and in series [1] (Table 2) was 338 nm each time. Also, the “solubility at RT, groundnut oil” value in series [2] (printed as symbol) is given as “.infin”. Moreover, in series [2], the “solubility at RT, groundnut/paraffin oil = 1:9” value is given as “.infin”.
For `COc1ccc(C(=O)c2cc(S(=O)(=O)O)c(OC)cc2O)c(O)c1` [Comparison example 1, sodium 2,2'-dihydroxy-4,4'-dimethoxybenzophenone-5-sulphonate, reference compound], in series [1] (Table 2), the “specific extinction E^1” value is reported as 160 and the λmax came to 330 nm. In addition, the specific extinction result in series [1] is given as “markedly lower specific extinction”.
As for `O=C(c1ccc(O)cc1O)c1ccc(O)cc1O` [Comparison example 2, 2,2',4,4'-tetrahydroxybenzophenone, reference compound], in series [1] (Table 2), the “specific extinction E^1” value is on record as 645 and the λmax was determined as 351 nm. Also, the specific extinction result in series [1] is given as “markedly lower specific extinction”. Moreover, in series [2], the “solubility at RT, groundnut oil” value was found to be 0.8%.
`COc1ccc(C(=O)CC(=O)c2ccc(OC)cc2)cc1` [Comparison example 3, dianisoylmethane, reference compound]: in series [2], the “solubility at RT, groundnut oil” value was 1%.
In series [1] (Table 1), `CCCCCCOC(=O)C(=CN1c2ccccc2CC1C)C(=O)OCCCCCC` (stereo not drawn) [(5), N-(dicarbohexyloxyvinyl)-2-methylindoline] displayed a λmax of 332 nm. For the same compound, in series [1], the E (molar extinction coefficient) stood at 25300 L/mol/cm. In addition, in series [1] (Table 2), the “specific extinction E^1” value stood at 582 and the λmax was found to be 332 nm. Further, the “solubility at RT, groundnut oil” value in series [2] (printed as symbol) is given as “.infin”. Also, the “solubility at RT, groundnut/paraffin oil = 1:9” value in series [2] is “.infin”.
`CCOC(=O)C(=CN1CCc2ccccc21)C(=O)OCC` [(1), N-(dicarboethoxyvinyl)indoline] showed a λmax in series [1] (Table 1) of 330 nm. This compound had an E (molar extinction coefficient) in series [1] of 32200 L/mol/cm. In addition, in series [1] (Table 2), the “specific extinction E^1” value came out at 1114 and the λmax stood at 330 nm. Further, in series [2] (printed as symbol), the “solubility at RT, groundnut oil” value was “.infin”. Also, the “solubility at RT, groundnut/paraffin oil = 1:9” value in series [2] is reported as “.infin”.
For the compound `CCOC(=O)C(=CN1CCCc2ccccc21)C(=O)OCC` [(6), N-(dicarboethoxyvinyl)-1,2,3,4-tetrahydroquinoline], the λmax in series [1] (Table 1) and in series [1] (Table 2) was 317 nm in each case. This compound also had an E (molar extinction coefficient) in series [1] of 26700 L/mol/cm. The “specific extinction E^1” value in series [1] (Table 2) amounted to 878. Also, in series [2] (printed as symbol), the “solubility at RT, groundnut oil” value was “.infin”. Also, the “solubility at RT, groundnut/paraffin oil = 1:9” value in series [2] is given as “.infin”.
`CC(C)COC(=O)C(=CN1c2ccccc2CC1C)C(=O)OCC(C)C` (stereo not drawn) [(4), N-(dicarbo-iso-butoxyvinyl)-2-methylindoline] yielded a λmax in series [1] (Table 1) of 331 nm. In addition, the E (molar extinction coefficient) in series [1] is 26200 L/mol/cm. Further, in series [1] (Table 2), the “specific extinction E^1” value came to 730 and the λmax is on record as 331 nm. In series [2] (printed as symbol), the “solubility at RT, groundnut oil” value is listed as “.infin”. Besides, the “solubility at RT, groundnut/paraffin oil = 1:9” value in series [2] is “.infin”.
